Results taken from patent US10980232B2, “Herbicidal composition comprising cinmethylin and pyroxasulfone” (BASF Agro B.V., priority 2015, dated 2021).

Experiments:
Assay type in all cases: in vivo
STEME (Stellaria media) [1] = experiment: Greenhouse preemergence herbicidal activity, STEME; settings: 20 DAT
Method: (§1) The test plants have been seeded, separately for each species, in plastic containers in sandy loamy soil containing 5% of organic matter.
(§2) The containers were irrigated gently to promote germination and growth and subsequently covered with transparent plastic hoods until the plants had rooted.
(§3) The plants have been cultivated due to their individual requirements at 10-25° C. and 20-35° C. The plants were irrigated due to their necessity.
(§4) The racemic mixture (±)-2-exo-(2-Methylbenzyloxy)-1-methyl-4-isopropyl-7-oxabicyclo[2.2.1]heptane was used as herbicide A and formulated as emulsifiable concentrates with an active ingredient concentration of 50 g/l, 100 g/l or 750 g/l respectively.
(§5) Pyroxasulfone (herbicide B) was used as a water dispersible granule (85% WG).
(§6) In the following experiments, the herbicidal activity for the individual herbicidal compositions (solo and mixture applications) was assessed 20 days after treatment (DAT).
(§7) The evaluation for the damage on undesired weeds caused by the chemical compositions was carried out using a scale from 0 to 100%, compared to the untreated control plants. Here, 0 means no damage and 100 means complete destruction of the plants.
(§8) E=X+Y−(X·Y/100) where X=effect in percent using herbicide A at an application rate a; • Y=effect in percent using herbicide B at application rate b; • E=expected effect (in %) of herbicide A+herbicide B at application rates a+b.
(§9) The value E corresponds to the effect (plant damage or injury) which is to be expected if the activity of the individual compounds is additive. If the observed effect is higher than the value E calculated according to the Colby equation, a synergistic effect is present.

[2] = test system: AMARE (Amaranthus retroflexus); experiment: Greenhouse preemergence herbicidal activity, AMARE; settings: pyroxasulfone solo 10 g ai/ha, 20 DAT
Method: as §1, §2, §3, §4, §5, §6
The evaluation for the damage on undesired weeds caused by the chemical compositions was carried out using a scale from 0 to 100%, compared to the untreated control plants. […]
as §9

[3] = test system: AMARE (Amaranthus retroflexus); experiment: Greenhouse postemergence herbicidal activity, AMARE; settings: pyroxasulfone solo 45 g ai/ha, 20 DAT
Method: as §1
(§10) For the post emergence treatment, the plants were first grown to the 2 leaf station (GS 12). Here, the herbicidal compositions were suspended or emulsified in water as distribution medium and sprayed using finely distributing nozzels.
as §3, §4, §5
(§11) In the following experiments, the herbicidal activity for the individual herbicidal compositions (solo and mixture applications) was assessed 20 days after treatment (DAT). […]
as §9

[4] = test system: POLCO (Polygonum convolvulus); experiment: Greenhouse postemergence herbicidal activity, POLCO; settings: pyroxasulfone solo 45 g ai/ha, 20 DAT
Method: as §1, §10, §3, §4, §5, §11, §9

[5] = test system: CHEAL (Chenopodium album); experiment: Greenhouse postemergence herbicidal activity, CHEAL; settings: 20 DAT
Method: as §1, §10, §3, §4, §5, §6, §7, §8, §9

[6] = test system: SORHA (Sorghum halepense); experiment: Greenhouse postemergence herbicidal activity, SORHA; settings: pyroxasulfone solo 11.25 g ai/ha, 20 DAT
Method: as §1, §10, §3, §4, §5, §11, §9

[7] = test system: CHEAL (Chenopodium album); experiment: Greenhouse preemergence herbicidal activity, CHEAL; settings: 20 DAT
Method: as §1, §2, §3, §4, §5, §6, §7, §8, §9

[8] = test system: ABUTH (Abutilon theoprasti); experiment: Greenhouse preemergence herbicidal activity, ABUTH; settings: 20 DAT
Method: as §1, §2, §3, §4, §5, §6, §7, §8, §9

[9] = test system: POLCO (Polygonum convolvulus); experiment: Greenhouse preemergence herbicidal activity, POLCO; settings: 20 DAT
Method: as §1, §2, §3, §4, §5, §6, §7, §8, §9

[10] = test system: ANTAR (Anthemis arvensis); experiment: Greenhouse postemergence herbicidal activity, ANTAR; settings: 20 DAT
Method: as §1, §10, §3, §4, §5, §6, §7, §8, §9

GALAP (Galium aparine) = experiment: Greenhouse preemergence herbicidal activity, GALAP; settings: 20 DAT
Method: as §1, §2, §3, §4, §5, §6, §7, §8, §9

[11] = test system: ANTAR (Anthemis arvensis); experiment: Greenhouse preemergence herbicidal activity, ANTAR; settings: 20 DAT
Method: as §1, §2, §3, §4, §5, §6, §7, §8, §9

[12] = test system: LOLMU (Lolium multiflorum); experiment: Greenhouse preemergence herbicidal activity, LOLMU; settings: 20 DAT
Method: as §1, §2, §3, §4, §5, §6, §7, §8, §9

AVEFA (Avena fatua) [13] = experiment: Greenhouse postemergence herbicidal activity, AVEFA; settings: 20 DAT
Method: as §1, §10, §3, §4, §5, §6, §7, §8, §9

[14] = test system: LOLMU (Lolium multiflorum); experiment: Greenhouse postemergence herbicidal activity, LOLMU; settings: 20 DAT
Method: as §1, §10, §3, §4, §5, §6, §7, §8, §9

STEME (Stellaria media) [15] = experiment: Greenhouse postemergence herbicidal activity, STEME; settings: 20 DAT
Method: as §1, §10, §3, §4, §5, §6, §7, §8, §9

[16] = test system: GERDI (Geranium dissectum); experiment: Greenhouse preemergence herbicidal activity, GERDI; settings: 20 DAT
Method: as §1, §2, §3, §4, §5, §6, §7, §8, §9

AVEFA (Avena fatua) [17] = experiment: Greenhouse preemergence herbicidal activity, AVEFA; settings: 20 DAT
Method: as §1, §2, §3, §4, §5, §6, §7, §8, §9

[18] = pyroxasulfone solo 11.25 g ai/ha
[19] = pyroxasulfone solo 22.5 g ai/ha

SMILES: Cn1nc(C(F)(F)F)c(CS(=O)(=O)C2=NOC(C)(C)C2)c1OC(F)F [pyroxasulfone, 3-[5-(difluoromethoxy)-1-methyl-3-(trifluoromethyl)pyrazol-4-ylmethylsulfonyl]-4,5-dihydro-5,5-dimethyl-1,2-oxazole]
- herbicidal activity (STEME (Stellaria media) [1]; pyroxasulfone solo 10 g ai/ha): 75%
- herbicidal activity (STEME (Stellaria media) [1]; pyroxasulfone solo 15 g ai/ha): 98%
- herbicidal activity (STEME (Stellaria media) [1]; pyroxasulfone solo 30 g ai/ha): 98%
- herbicidal activity [2]: 95%
- herbicidal activity [3]: 25%
- herbicidal activity [4]: 80%
- herbicidal activity [5, 18]: 80%
- herbicidal activity ([5]; pyroxasulfone solo 15 g ai/ha): 85%
- herbicidal activity [5, 19]: 65%
- herbicidal activity ([5]; pyroxasulfone solo 45 g ai/ha): 85%
- herbicidal activity ([5]; pyroxasulfone solo 90 g ai/ha): 95%
- herbicidal activity ([5]; pyroxasulfone solo 120 g ai/ha): 95%
- herbicidal activity [6]: 70%
- herbicidal activity ([7]; pyroxasulfone solo 10 g ai/ha): 50%
- herbicidal activity ([7]; pyroxasulfone solo 20 g ai/ha): 90%
- herbicidal activity ([8]; pyroxasulfone solo 10 g ai/ha): 0%
- herbicidal activity ([8]; pyroxasulfone solo 20 g ai/ha): 30%
- herbicidal activity ([8]; pyroxasulfone solo 30 g ai/ha): 50%
- herbicidal activity ([8]; pyroxasulfone solo 60 g ai/ha): 50%
- herbicidal activity ([8]; pyroxasulfone solo 120 g ai/ha): 98%
- herbicidal activity ([9]; pyroxasulfone solo 15 g ai/ha): 0%
- herbicidal activity ([9]; pyroxasulfone solo 20 g ai/ha): 0%
- herbicidal activity ([9]; pyroxasulfone solo 30 g ai/ha): 20%
- herbicidal activity ([9]; pyroxasulfone solo 60 g ai/ha): 80%
- herbicidal activity ([9]; pyroxasulfone solo 80 g ai/ha): 80%
- herbicidal activity ([9]; pyroxasulfone solo 120 g ai/ha): 90%
- herbicidal activity ([10]; pyroxasulfone solo 15 g ai/ha): 40%
- herbicidal activity ([10]; pyroxasulfone solo 60 g ai/ha): 90%
- herbicidal activity (GALAP (Galium aparine); pyroxasulfone solo 10 g ai/ha): 30%
- herbicidal activity (GALAP (Galium aparine); pyroxasulfone solo 15 g ai/ha): 0%
- herbicidal activity (GALAP (Galium aparine); pyroxasulfone solo 20 g ai/ha): 70%
- herbicidal activity (GALAP (Galium aparine); pyroxasulfone solo 80 g ai/ha): 98%
- herbicidal activity ([11]; pyroxasulfone solo 15 g ai/ha): 20%
- herbicidal activity ([11]; pyroxasulfone solo 20 g ai/ha): 60%
- herbicidal activity ([11]; pyroxasulfone solo 30 g ai/ha): 85%
- herbicidal activity ([11]; pyroxasulfone solo 40 g ai/ha): 70%
- herbicidal activity ([11]; pyroxasulfone solo 60 g ai/ha): 95%
- herbicidal activity ([11]; pyroxasulfone solo 80 g ai/ha): 75%
- herbicidal activity ([12]; pyroxasulfone solo 10 g ai/ha): 80%
- herbicidal activity ([12]; pyroxasulfone solo 15 g ai/ha): 98%
- herbicidal activity (AVEFA (Avena fatua) [13]; [18]): 50%
- herbicidal activity (AVEFA (Avena fatua) [13]; [19]): 50%
- herbicidal activity [14, 18]: 55%
- herbicidal activity ([14]; pyroxasulfone solo 15 g ai/ha): 70%
- herbicidal activity [14, 19]: 55%
- herbicidal activity (STEME (Stellaria media) [15]; [18]): 0%
- herbicidal activity (STEME (Stellaria media) [15]; pyroxasulfone solo 15 g ai/ha): 40%
- herbicidal activity (STEME (Stellaria media) [15]; [19]): 0%
- herbicidal activity (STEME (Stellaria media) [15]; pyroxasulfone solo 45 g ai/ha): 45%
- herbicidal activity (STEME (Stellaria media) [15]; pyroxasulfone solo 60 g ai/ha): 80%
- herbicidal activity ([16]; pyroxasulfone solo 30 g ai/ha): 75%
- herbicidal activity ([16]; pyroxasulfone solo 40 g ai/ha): 75%
- herbicidal activity (AVEFA (Avena fatua) [17]; pyroxasulfone solo 10 g ai/ha): 60%
- herbicidal activity (AVEFA (Avena fatua) [17]; pyroxasulfone solo 15 g ai/ha): 65%
- herbicidal activity (AVEFA (Avena fatua) [17]; pyroxasulfone solo 20 g ai/ha): 75%
- herbicidal activity (AVEFA (Avena fatua) [17]; pyroxasulfone solo 30 g ai/ha): 80%
- herbicidal activity (AVEFA (Avena fatua) [17]; pyroxasulfone solo 40 g ai/ha): 80%
- herbicidal activity (AVEFA (Avena fatua) [17]; pyroxasulfone solo 60 g ai/ha): 95%
